For 20 compounds, Ki results are on record in patent US8748624B2, “Picolinamido-propanoic acid derivatives useful as glucagon receptor antagonists” (Janssen Pharmaceutica NV, priority 2011, dated 2014).

The structures appear in SMILES notation. A value given as a limit tells only on which side of the number the result lay.

The target of experiment [1] is human GCGR (Homo sapiens (Human), UniProt P47871). The experiment in a line: Cellular functional assay, cAMP readout (glucagon-stimulated cAMP in HEK293 cells expressing human GCGR). Type of experiment: cell-based. The note with it: hGluc-1 HEK cells. How it is done:
IC50 Values in Cellular Functional Assays: cAMP Readout
Full-length human GCGR (Accession Number: NM000160) subcloned into pcDNA3.1 was stably transfected into HEK293 cells (hGluc-1 HEK) and maintained under G418 selection (500 μg/mL). Cell cultures were maintained in DMEM/F12 media supplemented with 10% FBS and 1% GlutaMax. Glucagon stimulated cAMP was quantified using LANCE technology as per manufacturer instructions. On the day of the experiment, spent media was removed and cells were washed with Hank's Buffered Saline solution (HBSS) and cells were harvested with non-enzymatic cell dissociation solution, then washed once with HBSS. Cells were re-suspended in stimulation buffer at a concentration of 0.83×10^6 cells/ml and cAMP detection antibody was added. 6 μl/well of this solution was then dispensed in a 384 well plate (cell density 5000 cells/well). Test compound was serially diluted in DMSO and 50 nl were dispensed on top of the cell solution and allowed to incubate for 30 minutes. 6 μl of a 2× glucagon solution (final concentration in assay […]) was then added and the reaction was terminated after 5 minutes with the addition of detection mix. The mixture was incubated, protected from light for 1.5 h. cAMP levels were quantified by TR-FRET in an EnVision instrument against a known standard. IC50's were generated by using a non-linear regression macro driven in Excel and converted to K, values.

For experiment [2], the target named is human glucagon receptor (GCGR) (Homo sapiens (Human), UniProt P47871). Nature of the experiment: Inhibition of 125I-glucagon binding to membranes from HEK293 cells expressing the human glucagon receptor. The note with it: membranes of hGluc-1 HEK cells, 125I-glucagon 0.3 nM. On the procedure:
Inhibition ^125I-Glucagon Binding to Membranes from HEK293 Cells Expressing the Human Glucagon Receptor (GCGR)
Full-length human GCGR (Accession Number: NM000160) subcloned into pcDNA3.1 was stably transfected into HEK293 cells (hGluc-1 HEK) and maintained under G418 selection (500 μg/mL). Cell cultures were maintained in DMEM/F12 media supplemented with 10% FBS and 1% GlutaMax. Membranes were prepared from these cells as follows: cells were harvested from T225 flasks and re-suspended in hypotonic lysis buffer, 50 mM HEPES pH 7.4 supplemented with Complete Protease inhibitors (Boehringer Mannheim, Indianapolis, Ind.). Cells were dounced 20 times on ice and spun at 700×g to remove nuclei and unlysed cells. The resulting pellet was re-suspended in hypotonic lysis buffer and the above step was repeated. Supernatants from the low speed centrifugation were combined and subsequently spun at 100K×g for 1 hr at 4° C. and the resulting pellet was re-suspended in buffer containing 50 mM HEPES pH 7.4 and 10% sucrose and the protein concentration was adjusted at 1 mg/mL as determined in the BCA assay. Membranes were aliquoted and stored at −80° C. The binding assay was performed by a filtration method in a 384 well format. Membranes at a final protein concentration of 6 μg/well were incubated with ^125I-glucagon at 0.3 nM and in the presence of compound for 2 hours at room temperature in a total reaction volume of 40 μL per well. Assay buffer consisted of 50 mM HEPES, pH 7.4, 5 mM MgCl2, 1 mM CaCl2 and 0.2% BSA. 30 μL of the reaction was then transferred to PEI treated filter plates and followed by filter aspiration. Plates were then washed 5× and allowed to dry at room temperature overnight. The next day the bottom of the plate was covered with seal tape and scintillant was added. Total counts retained by the filters were quantified with a Top Count instrument. IC50's were generated by using a non-linear regression macro driven in Excel and converted to K's.

Where [3] appears, read: LANCE TR-FRET, IC50 converted to Ki, average if tested more than once.
The mark [4] stands for this setting: 2 hours room temperature, IC50 converted to Ki, average if tested more than once.
Setting [5] is: meta-substituted comparative compounds (Table 3).

Sequence of human GCGR (P47871 26-477): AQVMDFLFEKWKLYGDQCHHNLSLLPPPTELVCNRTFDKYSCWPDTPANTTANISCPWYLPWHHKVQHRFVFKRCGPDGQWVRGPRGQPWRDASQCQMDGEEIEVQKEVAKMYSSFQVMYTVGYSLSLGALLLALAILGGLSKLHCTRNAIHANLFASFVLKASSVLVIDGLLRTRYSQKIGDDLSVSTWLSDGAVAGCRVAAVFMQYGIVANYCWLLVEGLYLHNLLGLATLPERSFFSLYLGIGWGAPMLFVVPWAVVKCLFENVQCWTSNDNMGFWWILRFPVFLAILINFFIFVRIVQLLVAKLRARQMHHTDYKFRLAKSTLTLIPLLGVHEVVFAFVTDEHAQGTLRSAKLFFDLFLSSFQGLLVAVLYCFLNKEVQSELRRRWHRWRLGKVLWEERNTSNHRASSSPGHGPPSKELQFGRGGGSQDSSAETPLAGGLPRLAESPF
Sequence of human glucagon receptor (GCGR) (P47871 26-477): as above

In the case of `O=C(O)CCNC(=O)c1ccc(-c2cc(Cl)ccc2CNc2ccc(-c3cc(F)cc(F)c3)cc2)cn1` [Compound 137, 3-(5-(5-chloro-2-(((3′,5′-difluoro-[1,1′-biphenyl]-4-yl)amino)methyl)phenyl)picolinamido)propanoic acid], the figures for the inhibition constant Ki in experiment [1] (setting [3]) and in experiment [2] (setting [4]) were 425 nM and 61.1 nM, respectively.
For the compound `COc1ccc(-c2ccc(NCc3cc(Cl)cc(-c4ccc(C(=O)NCCC(=O)O)nc4)c3)cc2)cc1` [Compound M2, 3-(5-(3-chloro-5-(((4′-methoxy-[1,1′-biphenyl]-4-yl)amino)methyl)phenyl)picolinamido)propanoic acid, reference compound], the results for the Ki in experiment [1] (setting [5]) and in experiment [2] (setting [5]) were more than 10400 nM and more than 2700 nM, respectively.
`O=C(O)CCNC(=O)c1ccc(-c2cc(F)c(F)cc2CNc2ccc(-c3ccc(Cl)cc3)cc2)cn1` [Compound 117, 3-(5-(2-(((4′-chloro-[1,1′-biphenyl]-4-yl)amino)methyl)-4,5-difluorophenyl)picolinamido)propanoic acid]: the Ki amounted to 160 nM in experiment [1] (setting [3]) and 43.5 nM in experiment [2] (setting [4]).
Take `O=C(O)CCNC(=O)c1ccc(-c2cc(Cl)ccc2CNc2ccc(-c3ccccc3Cl)cc2)cn1` [Compound 135, 3-(5-(5-chloro-2-(((2′-chloro-[1,1′-biphenyl]-4-yl)amino)methyl)phenyl)picolinamido)propanoic acid]: the Ki turned out to be 3000 nM in experiment [1] (setting [3]) and 63.9 nM in experiment [2] (setting [4]).
In the case of `O=C(O)CCNC(=O)c1ccc(-c2cc(C(F)(F)F)ccc2CNc2ccc(-c3ccc(Cl)cc3Cl)c(Cl)c2)cn1` [Compound 27, 3-(5-(2-(((2,2′,4′-trichloro-[1,1′-biphenyl]-4-yl)amino)methyl)-5-(trifluoromethyl)phenyl)picolinamido)propanoic acid], the Ki in experiment [1] (setting [3]) is 17.3 nM; in experiment [2] (setting [4]) it was 21.5 nM.
Consider `N#Cc1cc(NCc2cc(F)c(F)cc2-c2ccc(C(=O)NCCC(=O)O)nc2)ccc1-c1ccc(Cl)cc1F` [Compound 111, 3-(5-(2-(((4′-chloro-2-cyano-2′-fluoro-[1,1′-biphenyl]-4-yl)amino)methyl)-4,5-difluorophenyl)picolinamido)propanoic acid], for which the Ki in experiment [1] (setting [3]) came out at 180 nM; in experiment [2] (setting [4]), 69.6 nM.
The matching figures for `O=C(O)CCNC(=O)c1ccc(-c2cc(Cl)ccc2CNc2ccc(-c3ccc(F)cc3C(F)(F)F)c(Cl)c2)cn1` [Compound 142, 3-(5-(5-chloro-2-(((2-chloro-4′-fluoro-2′-(trifluoromethyl)-[1,1′-biphenyl]-4-yl)amino)methyl)phenyl)picolinamido)propanoic acid]: 225 nM and 31.3 nM.
In the same order, the values of `O=C(O)CCNC(=O)c1ccc(-c2cc(F)c(F)cc2CNc2ccc(-c3ccc(F)c(C(F)(F)F)c3)c(Cl)c2)cn1` [Compound 102, 3-(5-(2-(((2-chloro-4′-fluoro-3′-(trifluoromethyl)-[1,1′-biphenyl]-4-yl)amino)methyl)-4,5-difluorophenyl)picolinamido)propanoic acid] are 41.8 nM and 21.3 nM.
In the same order, the values of `O=C(O)CCNC(=O)c1ccc(-c2cc(Cl)ccc2CNc2ccc(-c3ccc(C(F)(F)F)cc3Cl)cc2)cn1` [Compound 147, 3-(5-(5-chloro-2-(((2′-chloro-4′-(trifluoromethyl)-[1,1′-biphenyl]-4-yl)amino)methyl)phenyl)picolinamido)propanoic acid] are 60 nM and 15.7 nM.
With `O=C(O)CCNC(=O)c1ccc(-c2cc(Cl)ccc2CNc2ccc(-c3ccc(F)c(F)c3)cc2)cn1` [Compound 136, 3-(5-(5-chloro-2-(((3′,4′-difluoro-[1,1′-biphenyl]-4-yl)amino)methyl)phenyl)picolinamido)propanoic acid], the figures for the Ki in experiment [1] (setting [3]) and in experiment [2] (setting [4]) were 253 nM and 28.6 nM, respectively.
The matching figures for `O=C(O)CCNC(=O)c1ccc(-c2cc(Cl)ccc2CNc2ccc(-c3ccccc3C(F)(F)F)cc2)cn1` [Compound 131, 3-(5-(5-chloro-2-(((2′-(trifluoromethyl)-[1,1′-biphenyl]-4-yl)amino)methyl)phenyl)picolinamido)propanoic acid]: 1750 nM and 71.3 nM.
As to `O=C(O)CCNC(=O)c1ccc(-c2cc(C(F)(F)F)ccc2CNc2ccc(-c3ccc(C(F)(F)F)cc3Cl)c(Cl)c2)cn1` [Compound 42, 3-(5-(2-(((2,2′-dichloro-4′-(trifluoromethyl)-[1,1′-biphenyl]-4-yl)amino)methyl)-5-(trifluoromethyl)phenyl)picolinamido)propanoic acid], the Ki was 20 nM in experiment [1] (setting [3]) and 16.5 nM in experiment [2] (setting [4]).
In the same order, the values of `CC(=O)c1ccc(-c2ccc(NCc3ccc(Cl)cc3-c3ccc(C(=O)NCCC(=O)O)nc3)cc2)cc1` [Compound 156, 3-(5-(2-(((4′-acetyl-[1,1′-biphenyl]-4-yl)amino)methyl)-5-chlorophenyl)picolinamido)propanoic acid] are 161 nM and 37.8 nM.
In the same order, the values of `O=C(O)CCNC(=O)c1ccc(-c2cc(C(F)(F)F)ccc2CNc2ccc(-c3ccc(C(F)(F)F)cc3Cl)cc2)cn1` [Compound 24, 3-(5-(2-(((2′-chloro-4′-(trifluoromethyl)-[1,1′-biphenyl]-4-yl)amino)methyl)-5-(trifluoromethyl)phenyl)picolinamido)propanoic acid] are 32.4 nM and 28.3 nM.
The matching figures for `O=C(O)CCNC(=O)c1ccc(-c2cc(F)c(F)cc2CNc2ccc(-c3ccc(Cl)cc3Cl)cc2)cn1` [Compound 118, 3-(5-(2-(((2′,4′-dichloro-[1,1′-biphenyl]-4-yl)amino)methyl)-4,5-difluorophenyl)picolinamido)propanoic acid]: 120 nM and 67.8 nM.
In the case of `O=C(O)CCNC(=O)c1ccc(-c2cc(Cl)ccc2CNc2ccc(-c3ccc(Cl)cc3Cl)c(Cl)c2)cn1` [Compound 51, 3-(5-(5-chloro-2-(((2,2′,4′-trichloro-[1,1′-biphenyl]-4-yl)amino)methyl)phenyl)picolinamido)propanoic acid], the figures for the inhibition constant (Ki) in experiment [1] (setting [3]) and in experiment [2] (setting [4]) were 34.1 nM and 16.8 nM, respectively.
The matching figures for `Cc1cc(F)ccc1-c1ccc(NCc2ccc(Cl)cc2-c2ccc(C(=O)NCCC(=O)O)nc2)cc1` [Compound 151, 3-(5-(5-chloro-2-(((4′-fluoro-2′-methyl-[1,1′-biphenyl]-4-yl)amino)methyl)phenyl)picolinamido)propanoic acid]: 113 nM and 16.5 nM.
In the same order, the values of `O=C(O)CCNC(=O)c1ccc(-c2cc(Cl)ccc2CNc2ccc(-c3ccc(Cl)c(Cl)c3)cc2)cn1` [Compound 58, 3-(5-(5-chloro-2-(((3′,4′-dichloro-[1,1′-biphenyl]-4-yl)amino)methyl)phenyl)picolinamido)propanoic acid] are 58.4 nM and 47.3 nM.
In the same order, the values of `O=C(O)CCNC(=O)c1ccc(-c2cc(Cl)ccc2C(=O)Nc2ccc(-c3ccc(Cl)cc3)cc2)cn1` [Compound 16, 3-(5-(5-chloro-2-((4% chloro-[1,1′-biphenyl]-4-yl)carbamoyl)phenyl)picolinamido)propanoic acid] are 50.5 nM and 43.8 nM.
For `O=C(O)CCNC(=O)c1ccc(-c2cc(Cl)ccc2CNc2ccc(-c3ccc(Cl)cc3)cc2F)cn1` [Compound 12, 3-(5-(5-chloro-2-(((4′-chloro-3-fluoro-[1,1′-biphenyl]-4-yl)amino)methyl)phenyl)picolinamido)propanoic acid], the Ki came out at 500 nM in experiment [1] (setting [3]) and 53 nM in experiment [2] (setting [4]).
